Experiments:
Format in all cases: functional
SNB-75 [1] = assay: Cytotoxicity against human SNB75 cells assessed as growth inhibition after 48 hrs by sulforhodamine B assay; conditions: SNB-75, 48 h
SF-295 [2] = assay: Cytotoxicity against human SF295 cells assessed as growth inhibition after 48 hrs by sulforhodamine B assay; conditions: SF-295, 48 h
HOP-92 [3] = assay: Cytotoxicity against human HOP92 cells assessed as growth inhibition after 48 hrs by sulforhodamine B assay; conditions: HOP-92, 48 h; for CC50: read-out: LC50 (the source's name)
CAKI-1 [4] = assay: Cytotoxicity against human Caki1 cells assessed as cell growth at 100 uM after 48 hrs by sulforhodamine B assay relative to control; conditions: CAKI-1, 48 h, read-out: Activity
CAKI-1 [5] = assay: Cytotoxicity against human Caki1 cells assessed as cell growth at 0.1 uM after 48 hrs by sulforhodamine B assay relative to control; conditions: CAKI-1, 48 h, read-out: Activity
CAKI-1 [6] = assay: Cytotoxicity against human Caki1 cells assessed as growth inhibition after 48 hrs by sulforhodamine B assay; conditions: CAKI-1, 48 h
SNB-75 [7] = assay: Cytotoxicity against human SNB75 cells assessed as cell growth at 1 uM after 48 hrs by sulforhodamine B assay relative to control; conditions: SNB-75, 48 h, read-out: Activity
SNB-75 [8] = assay: Cytotoxicity against human SNB75 cells assessed as cell growth at 0.01 uM after 48 hrs by sulforhodamine B assay relative to control; conditions: SNB-75, 48 h, read-out: Activity
SF-295 [9] = assay: Cytotoxicity against human SF295 cells assessed as cell growth at 10 uM after 48 hrs by sulforhodamine B assay relative to control; conditions: SF-295, 48 h, read-out: Activity
CAKI-1 [10] = assay: Cytotoxicity against human Caki1 cells assessed as cell growth at 10 uM after 48 hrs by sulforhodamine B assay relative to control; conditions: CAKI-1, 48 h, read-out: Activity
SNB-75 [11] = assay: Cytotoxicity against human SNB75 cells assessed as cell growth at 0.1 uM after 48 hrs by sulforhodamine B assay relative to control; conditions: SNB-75, 48 h, read-out: Activity
SNB-75 [12] = assay: Cytotoxicity against human SNB75 cells assessed as cell growth at 10 uM after 48 hrs by sulforhodamine B assay relative to control; conditions: SNB-75, 48 h, read-out: Activity
SF-295 [13] = assay: Cytotoxicity against human SF295 cells assessed as cell growth at 1 uM after 48 hrs by sulforhodamine B assay relative to control; conditions: SF-295, 48 h, read-out: Activity
CAKI-1 [14] = assay: Cytotoxicity against human Caki1 cells assessed as cell growth at 1 uM after 48 hrs by sulforhodamine B assay relative to control; conditions: CAKI-1, 48 h, read-out: Activity
SF-295 [15] = assay: Cytotoxicity against human SF295 cells assessed as cell growth at 100 uM after 48 hrs by sulforhodamine B assay relative to control; conditions: SF-295, 48 h, read-out: Activity
SF-295 [16] = assay: Cytotoxicity against human SF295 cells assessed as cell growth at 0.1 uM after 48 hrs by sulforhodamine B assay relative to control; conditions: SF-295, 48 h, read-out: Activity
CAKI-1 [17] = assay: Cytotoxicity against human Caki1 cells assessed as cell growth at 0.01 uM after 48 hrs by sulforhodamine B assay relative to control; conditions: CAKI-1, 48 h, read-out: Activity
SF-295 [18] = assay: Cytotoxicity against human SF295 cells assessed as cell growth at 0.01 uM after 48 hrs by sulforhodamine B assay relative to control; conditions: SF-295, 48 h, read-out: Activity
SK-MEL-2 [19] = assay: Cytotoxicity against human SK-MEL-2 cells assessed as cell growth at 0.1 uM after 48 hrs by sulforhodamine B assay relative to control; conditions: SK-MEL-2, 48 h, read-out: Activity
HOP-92 [20] = assay: Cytotoxicity against human HOP92 cells assessed as cell growth at 0.1 uM after 48 hrs by sulforhodamine B assay relative to control; conditions: HOP-92, 48 h, read-out: Activity
SK-MEL-2 [21] = assay: Cytotoxicity against human SK-MEL-2 cells assessed as cell growth at 0.01 uM after 48 hrs by sulforhodamine B assay relative to control; conditions: SK-MEL-2, 48 h, read-out: Activity
HOP-92 [22] = assay: Cytotoxicity against human HOP92 cells assessed as cell growth at 0.01 uM after 48 hrs by sulforhodamine B assay relative to control; conditions: HOP-92, 48 h, read-out: Activity
LOX IMVI [23] = assay: Cytotoxicity against human LOXIMVI cells assessed as cell growth at 1 uM after 48 hrs by sulforhodamine B assay relative to control; conditions: read-out: Activity
LOX IMVI [24] = assay: Cytotoxicity against human LOXIMVI cells assessed as cell growth at 0.1 uM after 48 hrs by sulforhodamine B assay relative to control; conditions: read-out: Activity
HOP-92 [25] = assay: Cytotoxicity against human HOP92 cells assessed as cell growth at 100 uM after 48 hrs by sulforhodamine B assay relative to control; conditions: HOP-92, 48 h, read-out: Activity
LOX IMVI [26] = assay: Cytotoxicity against human LOXIMVI cells assessed as cell growth at 10 uM after 48 hrs by sulforhodamine B assay relative to control; conditions: read-out: Activity
SK-MEL-2 [27] = assay: Cytotoxicity against human SK-MEL-2 cells assessed as cell growth at 1 uM after 48 hrs by sulforhodamine B assay relative to control; conditions: SK-MEL-2, 48 h, read-out: Activity
SK-MEL-2 [28] = assay: Cytotoxicity against human SK-MEL-2 cells assessed as cell growth at 10 uM after 48 hrs by sulforhodamine B assay relative to control; conditions: SK-MEL-2, 48 h, read-out: Activity
LOX IMVI [29] = assay: Cytotoxicity against human LOXIMVI cells assessed as cell growth at 100 uM after 48 hrs by sulforhodamine B assay relative to control; conditions: read-out: Activity
LOX IMVI [30] = assay: Cytotoxicity against human LOXIMVI cells assessed as cell growth at 0.01 uM after 48 hrs by sulforhodamine B assay relative to control; conditions: read-out: Activity
SK-MEL-2 [31] = assay: Cytotoxicity against human SK-MEL-2 cells assessed as cell growth at 100 uM after 48 hrs by sulforhodamine B assay relative to control; conditions: SK-MEL-2, 48 h, read-out: Activity
HOP-92 [32] = assay: Cytotoxicity against human HOP92 cells assessed as cell growth at 10 uM after 48 hrs by sulforhodamine B assay relative to control; conditions: HOP-92, 48 h, read-out: Activity
HOP-92 [33] = assay: Cytotoxicity against human HOP92 cells assessed as cell growth at 1 uM after 48 hrs by sulforhodamine B assay relative to control; conditions: HOP-92, 48 h, read-out: Activity

Compound | GI50 (SNB-75 [1]) [µM] | GI50 (SF-295 [2]) [µM] | growth at 100 µM (CAKI-1 [4]) [%] | growth at 0.1 µM (CAKI-1 [5]) [%] | LC50 (CAKI-1 [6]) [µM] | TGI (CAKI-1 [6]) [µM] | LC50 (SF-295 [2]) [µM] | growth at 10 µM (CAKI-1 [10]) [%] | growth at 1 µM (CAKI-1 [14]) [%] | growth at 0.01 µM (CAKI-1 [17]) [%] | growth at 0.1 µM (SK-MEL-2 [19]) [%] | growth at 0.01 µM (SK-MEL-2 [21]) [%] | growth at 1 µM (LOX IMVI [23]) [%] | growth at 0.1 µM (LOX IMVI [24]) [%] | growth at 10 µM (LOX IMVI [26]) [%] | growth at 1 µM (SK-MEL-2 [27]) [%] | growth at 10 µM (SK-MEL-2 [28]) [%] | growth at 100 µM (LOX IMVI [29]) [%] | growth at 0.01 µM (LOX IMVI [30]) [%] | growth at 100 µM (SK-MEL-2 [31]) [%] | other results
COc1ccc(-c2cc(/C=C/C(=O)c3ccc4c(c3)OCO4)[nH]n2)cc1OC | 1.16 | 1.6 |  |  |  |  |  |  |  |  |  |  |  |  |  |  |  |  |  |  | GI50 (HOP-92 [3]): 1.97 µM
COc1ccc(-c2cc(/C=C/C(=O)c3ccc(N)cc3)[nH]n2)cc1 | 2.25 | 3.09 | -63 | 97 | 64.3 | 11.1 | 49.6 | 3 | 56 | 95 |  |  |  |  |  |  |  |  |  |  | LC50 (concentration killing 50% of cells) (SNB-75 [1]): 35.3 µM; TGI (SNB-75 [1]): 11.4 µM; GI50 (CAKI-1 [6]): 1.32 µM; growth at 1 µM (SNB-75 [7]): 74%; TGI (SF-295 [2]): 13.1 µM; growth at 0.01 µM (SNB-75 [8]): 85%; growth at 10 µM (SF-295 [9]): 10%; growth at 0.1 µM (SNB-75 [11]): 88%; growth at 10 µM (SNB-75 [12]): 6%; growth at 1 µM (SF-295 [13]): 88%; growth at 100 µM (SF-295 [15]): -76%; growth at 0.1 µM (SF-295 [16]): 95%; growth at 0.01 µM (SF-295 [18]): 93%
COc1cc(-c2cc(/C=C/C(=O)c3ccc(Cl)c(Cl)c3)[nH]n2)cc(OC)c1OC |  |  | 11 | 91 | > 100 | > 100 |  | 62 | 87 | 91 | 88 | 94 | 88 | 92 | 16 | 99 | 68 | -58 | 96 | -60 | growth at 0.1 µM (HOP-92 [20]): 90%; growth at 0.01 µM (HOP-92 [22]): 89%; growth at 100 µM (HOP-92 [25]): -56%; TGI (HOP-92 [3]): 8.25 µM; CC50 (HOP-92 [3]): 75.9 µM; growth at 10 µM (HOP-92 [32]): -8%; growth at 1 µM (HOP-92 [33]): 89%
COc1cc(-c2cc(/C=C/C(=O)c3ccc(F)c(F)c3)[nH]n2)cc(OC)c1OC |  |  | 3 | 94 | > 100 | > 100 |  | 12 | 84 | 95 | 98 | 93 | 92 | 94 | 8 | 94 | -28 | -86 | 93 | -64 | 
COc1cc(-c2cc(/C=C/C(=O)c3ccc4c(c3)OCO4)[nH]n2)cc(OC)c1OC |  |  | 27 | 96 | > 100 | > 100 |  | 35 | 92 | 96 | 93 | 90 | 91 | 93 | -67 | 101 | 51 | -54 | 93 | -60 | 
COc1cc2c(cc1OC)C(=O)/C(=C/c1cc(-c3ccc4c(c3)OCO4)n[nH]1)C2 | 1.65 | 1.64 | -81 | 97 | 6 | 3 | 6.5 | -87 | 79 | 98 |  |  |  |  |  |  |  |  |  |  | LC50 (concentration killing 50% of cells) (SNB-75 [1]): 5.51 µM; TGI (SNB-75 [1]): 3.02 µM; GI50 (CAKI-1 [6]): 1.5 µM; growth at 1 µM (SNB-75 [7]): 92%; TGI (SF-295 [2]): 3.26 µM; growth at 0.01 µM (SNB-75 [8]): 85%; growth at 10 µM (SF-295 [9]): -81%; growth at 0.1 µM (SNB-75 [11]): 94%; growth at 10 µM (SNB-75 [12]): -100%; growth at 1 µM (SF-295 [13]): 86%; growth at 100 µM (SF-295 [15]): -93%; growth at 0.1 µM (SF-295 [16]): 95%; growth at 0.01 µM (SF-295 [18]): 95%
COc1cc(-c2cc(/C=C/C(=O)c3ccc(N)cc3)[nH]n2)cc(OC)c1OC |  | 2.55 |  |  |  |  | 34.8 |  |  |  | 111 | 106 | 83 | 99 | -78 | 104 | -15 | -82 | 98 | -85 | growth at 0.1 µM (HOP-92 [20]): 82%; growth at 0.01 µM (HOP-92 [22]): 88%; TGI (SF-295 [2]): 10.9 µM; growth at 100 µM (HOP-92 [25]): -35%; growth at 10 µM (SF-295 [9]): 4%; GI50 (HOP-92 [3]): 3.68 µM; TGI (HOP-92 [3]): 27.6 µM; CC50 (HOP-92 [3]): > 100 µM; growth at 1 µM (SF-295 [13]): 82%; growth at 100 µM (SF-295 [15]): -95%; growth at 10 µM (HOP-92 [32]): 28%; growth at 0.1 µM (SF-295 [16]): 89%; growth at 1 µM (HOP-92 [33]): 79%; growth at 0.01 µM (SF-295 [18]): 88%

From ChEMBL document CHEMBL4138123, “Design, synthesis and biological evaluation of novel pyrazolochalcones as potential modulators of PI3K/Akt/mTOR pathway and inducers of apoptosis in breast cancer cells” (Eur J Med Chem, 2017)
